The test relates to HL60 cells. The test can be described thus: Real-time deformability measurement (circularity) of cells in shear flow through a microfluidic channel. It is filed as cell-based. From the text:
In order to compare the deformation of cells, it is useful to introduce a single parameter to quantify the degree of deformation for each single cell. This can be done in numerous ways. • The circularity of a closed contour is defined by
[formula] where A is the area enclosed by the contour and l is the perimeter.
The circularity relates the ratio of area and perimeter to that of an ideal circle. For an ideal circle c=1. All other shapes result in values smaller than 1. […] For initially spherical cells such as the HL60 cell line the circularity is a very sensitive measure for the induced deformation. However for cells initially having other shapes the circularity may not be the ideal choice, since completely different shapes can lead to the same circularity.
The following experimental protocol is used for all measurements described in this section. For comparability all studies on HL60 cells presented in this application are carried out during the log phase of cell growth (36 h after splitting). Cells are centrifuged for 5 minutes at 800 rpm (which leads to an outward acceleration of about 100 g) using an Eppendorf 5804 R centrifuge (Eppendorf, Hamburg, Germany). […] The viscosity of the medium was measured with a falling sphere viscometer (HAAKE Kugelfallviskosimeter Typ C, Thermo Electron GmbH, Karlsruhe, Germany). […]

In the case of `C=C1[C@@H](C)[C@H]2[C@H](Cc3ccccc3)NC(=O)[C@]23[C@H](OC(C)=O)/C=C/[C@@](C)(O)C(=O)[C@@H](C)C/C=C/[C@H]3[C@@H]1O` [cytochalasin D], the “circularity (peak of the histogram of circularities)” value (HL60 cells treated with cytochalasin D (2 mM added to a final concentration of 5 μL/ml, 10 minutes at 37° C.), flow rate 0.04 μl/s, 20×20 μm^2 channel section, real time measurement, FIG. 10A) worked out at 0.929±0.04. Moreover, the “deformation compared to untreated cells” value (HL60 cells treated with cytochalasin D, flow rate of 0.04 μl/s) is “deform more”.
